# In ChEMBL document CHEMBL4330071 (Eur J Med Chem, 2019):
# Experiments:
# [1] = biological target: T1, Receptor-type tyrosine-protein kinase FLT3 (Homo sapiens, UniProt P36888); assay: Inhibition of human FLT3 using EAIYAAPFAKKK as substrate preincubated for 20 mins followed by [gamma-33P]-ATP addition and measured after 120 mins by Hotspot assay
# T1 sequence (P36888 whole entry): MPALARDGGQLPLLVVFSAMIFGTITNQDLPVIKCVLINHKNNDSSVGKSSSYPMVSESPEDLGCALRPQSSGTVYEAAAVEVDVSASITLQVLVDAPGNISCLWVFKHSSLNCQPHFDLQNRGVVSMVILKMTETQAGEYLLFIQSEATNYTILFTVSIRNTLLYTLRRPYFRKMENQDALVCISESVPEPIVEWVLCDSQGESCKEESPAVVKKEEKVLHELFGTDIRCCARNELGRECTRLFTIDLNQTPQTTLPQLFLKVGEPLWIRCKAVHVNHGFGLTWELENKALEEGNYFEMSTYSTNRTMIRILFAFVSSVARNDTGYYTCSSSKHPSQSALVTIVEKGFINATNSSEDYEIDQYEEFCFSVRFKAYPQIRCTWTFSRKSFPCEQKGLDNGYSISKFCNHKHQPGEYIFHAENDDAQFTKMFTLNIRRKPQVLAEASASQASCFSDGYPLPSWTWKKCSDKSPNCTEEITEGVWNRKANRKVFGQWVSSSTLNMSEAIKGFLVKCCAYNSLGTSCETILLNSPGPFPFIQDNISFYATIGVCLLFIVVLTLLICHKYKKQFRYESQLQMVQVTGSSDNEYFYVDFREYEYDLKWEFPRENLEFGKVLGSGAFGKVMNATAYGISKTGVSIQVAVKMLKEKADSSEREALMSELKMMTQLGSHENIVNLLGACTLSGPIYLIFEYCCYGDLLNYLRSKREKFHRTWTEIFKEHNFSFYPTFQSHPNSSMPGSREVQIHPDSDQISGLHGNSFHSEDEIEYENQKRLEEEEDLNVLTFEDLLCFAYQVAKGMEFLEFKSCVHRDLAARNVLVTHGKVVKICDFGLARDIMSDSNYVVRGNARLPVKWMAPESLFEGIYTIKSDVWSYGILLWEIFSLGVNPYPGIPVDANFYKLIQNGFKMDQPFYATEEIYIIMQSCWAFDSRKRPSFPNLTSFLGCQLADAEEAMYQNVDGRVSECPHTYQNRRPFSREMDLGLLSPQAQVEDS
# MV4-11 [2] = assay: Induction of apoptosis in human MV4-11 cells assessed as necrotic cells at 1 uM after 24 hrs by Annexin V-FITC/propidium iodide staining based flow cytometric analysis (reference value: 0%); format: functional
# MV4-11 [3] = assay: Induction of apoptosis in human MV4-11 cells assessed as early apoptotic cells at 1 uM after 24 hrs by Annexin V-FITC/propidium iodide staining based flow cytometric analysis (reference value: 3.39%); format: functional
# MV4-11 [4] = assay: Induction of apoptosis in human MV4-11 cells assessed as late apoptotic cells at 1 uM after 24 hrs by Annexin V-FITC/propidium iodide staining based flow cytometric analysis (reference value: 1.42%); format: functional
# MV4-11 [5] = assay: Cytotoxicity against human MV4-11 cells at 1 uM after 72 hrs by MTT assay; format: cell-based; conditions: mv4-11, 72 h
# MV4-11 [6] = assay: Induction of apoptosis in human MV4-11 cells assessed as viable cells at 1 uM after 24 hrs by Annexin V-FITC/propidium iodide staining based flow cytometric analysis (reference value: 95.19%); format: functional; conditions: MV4-11, 24 h, read-out: Activity
# [7] = Half life in human liver microsomes at 1 uM after 5 to 60 mins in presence of NADPH by LC-MS/MS analysis; format: ADME, Microsome
# [8] = Intrinsic clearance in rat liver microsomes assessed per mg protein at 1 uM after 5 to 60 mins in presence of NADPH by LC-MS/MS analysis; format: ADME, Microsome; conditions: read-out: CLH
# [9] = Half life in rat liver microsomes at 1 uM after 5 to 60 mins in presence of NADPH by LC-MS/MS analysis; format: ADME, Microsome
# [10] = Intrinsic clearance in human liver microsomes assessed per mg protein at 1 uM after 5 to 60 mins in presence of NADPH by LC-MS/MS analysis; format: ADME, Microsome; conditions: read-out: CLH
smiles,measurement,setting,value
COc1ccc(Oc2ccc3c(NC(=O)c4ccc(NC5CCN(C)CC5)cc4)n[nH]c3c2)cc1,IC50,[1],222 nM
CN1CCC(Nc2ccc(C(=O)Nc3n[nH]c4cc(Oc5ccccc5)ccc34)cc2)CC1,IC50,[1],136 nM
CN1CCN(c2ccc(Nc3[nH]nc4c3-c3ccccc3CC4)cc2)CC1,IC50,[1],610 nM
CN1CCN(c2ccc(Nc3[nH]nc4c3-c3ccccc3CO4)cc2)CC1,IC50,[1],842 nM
CNC(=O)c1cc(Oc2ccc(NC(=O)Nc3ccc(Cl)c(C(F)(F)F)c3)cc2)ccn1 [SORAFENIB],Activity,MV4-11 [2],4.2%
same,Activity,MV4-11 [3],32.25%
same,Activity,MV4-11 [4],27.58%
same,Activity,MV4-11 [5],Non-Toxic
same,viability at 1 µM,MV4-11 [6],36%
Cc1ncc2n1-c1ccc(Cl)cc1C(c1ccccc1F)=NC2 [MIDAZOLAM],half-life at 1 µM,[7],2.2 min
same,microsomal CLint at 1 µM,[8],124 µL/min/mg
same,half-life at 1 µM,[9],11.2 min
same,microsomal CLint at 1 µM,[10],625 µL/min/mg
